Measurements as given in the Kinase Knowledgebase extract (Sharma et al. 2016).

molecular target: MAPK14;MAPK11;MAPK12 (human) (UniProt Q16539); assay: Inhibition of p38 Kinase Activity

Row | SMILES | IC50 [nM]
1 | Cc1c(Nc2nc(NC[C@@H]3CC[C@H]4C[C@H]3C4(C)C)nc(N(C)CC(C)C)n2)cccc1C(N)=O | < 1000
2 | Cc1ccc(C(N)=O)cc1Nc1nc(N[C@@H]2CCNC2)nc(N2CCCC(C(N)=O)C2)n1 (some centres not stated) | < 1000
3 | CNc1nc(NCCOC(C)C)nc(Nc2ccc3ncsc3c2)n1 | < 10000
4 | CC(CNc1nc(Nc2ccc3ncsc3c2)nc(N(C)C)n1)c1ccccc1 (configuration not stated) | < 10000
5 | c1nc2ccc(Nc3nc(N4CCNCC4)nc(N4CCC5CCCCC5C4)n3)cc2s1 (configuration not stated) | < 10000
6 | c1ccc2c(c1)CCN(c1nc(Nc3ccc4ncsc4c3)nc(N3CCNCC3)n1)C2 | < 10000
7 | CC(CN(C)c1nc(Nc2ccc3ncsc3c2)nc(N2CCNCC2)n1)c1ccccc1 (configuration not stated) | < 10000
8 | CC(CNc1nc(Nc2ccc3ncsc3c2)nc(N(C)C)n1)c1ccc(Cl)cc1 (configuration not stated) | < 10000
9 | Cc1ccc(C(N)=O)cc1Nc1nc(NCC2CC3CCC2C3)nc(N[C@H]2CCNC2)n1 (some centres not stated) | < 1000
10 | CCNC(=O)N(C)CCCN(C)c1nc(NCC(C)c2ccccc2)nc(Nc2ccc3ncsc3c2)n1 (configuration not stated) | < 10000
11 | CC(C)c1nc(NC[C@@H]2CC[C@@H]3C[C@H]2C3(C)C)nc(Nc2ccc3ncsc3c2)n1 | < 10000
12 | CC(CNc1nc(Nc2ccc3ncsc3c2)nc(N(C)CCCN(C)C(=O)c2ccccc2)n1)c1ccccc1 (configuration not stated) | < 10000
13 | c1nc2ccc(Nc3nc(CCC4CCCCC4)nc(N4CCNCC4)n3)cc2s1 | < 10000
14 | COCC(=O)N1CC2CC1CN2c1nc(NCC(C)c2ccccc2)nc(Nc2ccc3ncsc3c2)n1 (configuration not stated) | < 10000
15 | CC(CNc1nc(Nc2ccc3ncsc3c2)nc(N2CCN(C(=O)c3ccco3)CC2)n1)c1ccccc1 (configuration not stated) | < 10000
16 | CNc1nc(NCc2ccc(F)cc2F)nc(Nc2ccc3ncsc3c2)n1 | < 10000
17 | O=C(O)CCC(=O)N1CCN(c2nc(Nc3ccc4ncsc4c3)nc(N3CCc4ccccc4C3)n2)CC1 | < 10000
18 | CC(C)OCCNc1cc(Cl)nc(-n2cnc3ccccc32)n1 | < 10000
19 | Cc1ccc(C(N)=O)cc1Nc1nc(NC[C@H]2CCCN2)nc(N(C)CC2CCCC2)n1 | < 1000

Row | SMILES | IC50 [nM]
20 | CCNC(=O)N1CC2CC1CN2c1nc(NCC(C)c2ccccc2)nc(Nc2ccc3ncsc3c2)n1 (configuration not stated) | < 10000
21 | CNCCN(C)c1nc(NCC(C)c2ccccc2)nc(Nc2cccc(Br)c2)n1 (configuration not stated) | < 10000
22 | CNCCCN(C)c1nc(NC[C@@H]2CC[C@H]3C[C@@H]2C3(C)C)nc(Nc2ccc3ncsc3c2)n1 | < 10000
23 | COCC(=O)N1CCN(c2nc(NCC(C)c3ccccc3)nc(Nc3ccc4ncsc4c3)n2)CC1 (configuration not stated) | < 10000
24 | C[C@H](CNc1nc(Cl)nc(Nc2ccc3ncsc3c2)n1)c1ccccc1 | < 10000
25 | CC(CNc1nc(Cl)nc(Nc2ccc3ncsc3c2)n1)c1ccccc1 (configuration not stated) | < 10000
26 | CNCCN(C)c1nc(NC[C@H](C)c2ccccc2)nc(Nc2ccc3ncsc3c2)n1 | < 10000
27 | CC(C)NC(=O)N1CC2CC1CN2c1nc(NCC(C)c2ccccc2)nc(Nc2ccc3ncsc3c2)n1 (configuration not stated) | < 10000
28 | NC(=O)CNc1nc(NCCc2ccccc2)nc(Nc2ccc3ncsc3c2)n1 | < 10000
29 | c1nc2ccc(Nc3nc(NCC4CCCO4)nc(NC4CC4)n3)cc2s1 (configuration not stated) | < 10000
30 | CC(CNc1nc(Nc2ccc3ncsc3c2)nc(N2CC3CC2CN3C(=O)c2cccnc2)n1)c1ccccc1 (configuration not stated) | < 10000
31 | Cc1ccc2c(c1Nc1nc(NCC(C)(C)C)nc(N[C@H]3CCNC3)n1)CNC2=O | < 1000
32 | COC1CCCC(C(=O)N(C)CCCN(C)c2nc(NCC(C)c3ccccc3)nc(Nc3ccc4ncsc4c3)n2)C1 (configuration not stated) | < 10000
33 | CNCCN(C)c1nc(NCc2ccc(F)cc2F)nc(Nc2ccc3ncsc3c2)n1 | < 10000
34 | CC(C)C(=O)N(C)CCCN(C)c1nc(NCC(C)c2ccccc2)nc(Nc2ccc3ncsc3c2)n1 (configuration not stated) | < 10000
35 | CN(CCN(C)c1nc(NCCc2ccccc2)nc(Nc2ccc3ncsc3c2)n1)C(=O)CCC(=O)O | < 10000
36 | c1ccc(C2CCCN(c3nc(Nc4ccc5ncsc5c4)nc(N4CCNCC4)n3)C2)cc1 (configuration not stated) | < 10000
37 | Nc1nc(NCCc2ccccc2)nc(Nc2ccc(S(=O)(=O)N(C=O)c3ncccn3)cc2)n1 | < 10000

The remaining lines, values ahead:

Row | IC50 [nM] | SMILES
38 | < 1000 | COc1ccccc1CN1CCC(Nc2nc(Nc3cc(C(N)=O)ccc3C)nc(N(C)CC(C)C)n2)C1 (configuration not stated)
39 | < 1000 | Cc1ccc(C(=O)NCc2ccccc2)cc1Nc1nc(N[C@H]2CCNC2)nc(N(C)CC(C)(C)C)n1
40 | < 1000 | Cc1ccc(C(N)=O)cc1Nc1nc(NC2CCN(Cc3ccc(C(F)(F)F)cc3)C2)nc(N(C)CC(C)C)n1 (configuration not stated)
41 | < 1000 | Cc1ccc(CNC(C)C)cc1Nc1nc(N[C@H]2CCNC2)nc(N(C)CC(C)(C)C)n1
42 | < 1000 | CONC(=O)c1ccc(C)c(Nc2nc(N(C)CC(C)(C)C)nc(N3CCN(C)CC3)n2)c1
43 | < 1000 | Cc1ccc(C(N)=O)cc1Nc1nc(N[C@H]2CCN(C(C)C)C2)nc(N(C)CC(C)C)n1
44 | < 1000 | CONC(=O)c1ccc(C)c(Nc2nc(N(C)CC(C)(C)C)nc(N3CCCNCC3)n2)c1
45 | < 1000 | Cc1ccc(C(N)=O)cc1Nc1nc(NC2CCN(CCc3ccccc3)C2)nc(N(C)CC(C)C)n1 (configuration not stated)
46 | < 1000 | Cc1ccc(C(N)=O)cc1Nc1nc(N[C@H]2CCN(Cc3cccc4c3OCO4)C2)nc(N(C)CC(C)C)n1
47 | < 1000 | Cc1ccc(C(N)=O)cc1Nc1nc(N[C@H]2CCN(C(C)c3ccncc3)C2)nc(N(C)CC(C)C)n1 (some centres not stated)
48 | < 1000 | Cc1ccc(COC(=O)C(F)(F)F)cc1Nc1nc(N[C@H]2CCNC2)nc(N(C)CC(C)(C)C)n1
49 | < 1000 | CONC(=O)c1ccc(C)c(Nc2nc(N)nc(N(C)CC(C)(C)C)n2)c1
50 | < 1000 | CONC(=O)c1ccc(C)c(Nc2nc(N(C)CC(C)(C)C)nc(N3CCNCC3)n2)c1
51 | < 1000 | Cc1ccc(C(N)=O)cc1Nc1nc(NCCc2ccc(F)cc2)nc(N[C@H]2CCNC2)n1
52 | < 1000 | CCONC(=O)c1ccc(C)c(Nc2nc(NCCO)nc(N(C)CC(C)(C)C)n2)c1
53 | < 1000 | Cc1ccc(C(=O)Nc2c(Cl)cccc2Cl)cc1Nc1nc(N[C@H]2CCNC2)nc(N(C)CC(C)(C)C)n1
54 | < 30000 | CONC(=O)c1ccc(C)c(Oc2nc(N[C@@H]3CCNC3)nc(N(C)CC(C)(C)C)n2)c1
55 | < 1000 | Cc1ccc(C(N)=O)cc1Nc1nc(N[C@H]2CCNC2)nc(N(C)CC(C)C)n1
56 | < 1000 | Cc1ccc(C(N)=O)cc1Nc1nc(N[C@H]2CCN(C(C)c3cccnc3)C2)nc(N(C)CC(C)C)n1 (some centres not stated)
57 | < 1000 | COC[C@H]1C[C@@H](Nc2nc(Nc3cc(C(N)=O)ccc3C)nc(N(C)CC(C)(C)C)n2)CN1
58 | < 1000 | CCONC(=O)c1ccc(C)c(Nc2nc(NC3CCS(=O)(=O)C3)nc(N(C)CC(C)(C)C)n2)c1 (configuration not stated)
59 | < 1000 | Cc1ccc(C(N)=O)cc1Nc1nc(N[C@H]2CCN(CCC#N)C2)nc(N(C)CC(C)(C)C)n1
60 | < 1000 | Cc1ccc(C(N)=O)cc1Nc1nc(NC2CCN(C(C)(C)C)C2)nc(N(C)CC(C)C)n1 (configuration not stated)
61 | < 1000 | CONC(=O)c1ccc(C)c(Nc2nc(NCCNC(C)=O)nc(N(C)CC(C)(C)C)n2)c1
62 | < 1000 | Cc1ccc(C(N)=O)cc1Nc1nc(NCCc2ccc3c(c2)OCO3)nc(N[C@H]2CCNC2)n1
63 | < 1000 | Cc1ccc(CC2C[C@@H](Nc3nc(Nc4cc(C(N)=O)ccc4C)nc(N(C)CC(C)C)n3)CN2)cc1 (some centres not stated)
64 | < 1000 | Cc1ccc(C(N)=O)cc1Nc1nc(NCCc2ccc(Cl)cc2)nc(N[C@H]2CCNC2)n1
65 | < 1000 | CCNC(=O)c1ccc(C)c(Nc2nc(NCC(C)(C)C)nc(N[C@H]3CCNC3)n2)c1

Row | IC50 [nM] | SMILES
66 | < 30000 | CN(CC(C)(C)C)c1nc(N[C@@H]2CCNC2)nc(Sc2cc(C(N)=O)ccc2F)n1
67 | < 1000 | Cc1ccc(C(N)=O)cc1Nc1nc(N[C@H]2CN[C@@H](C)C2)nc(N(C)CC(C)(C)C)n1
68 | < 1000 | Cc1ccc(C(=O)NCCc2ccccc2)cc1Nc1nc(N[C@H]2CCNC2)nc(N(C)CC(C)(C)C)n1
69 | < 1000 | Cc1ccc(C(=O)Nc2ccccn2)cc1Nc1nc(N[C@H]2CCNC2)nc(N(C)CC(C)(C)C)n1
70 | < 1000 | Cc1ccc(C(N)=O)cc1Nc1nc(N[C@H]2CCN(CC(C)(C)C)C2)nc(N(C)CC(C)(C)C)n1
71 | < 1000 | Cc1ccc(C(N)=O)cc1Nc1nc(O)nc(N[C@H]2CCNC2)n1
72 | < 1000 | Cc1ccc(C(N)=O)cc1Nc1nc(N[C@H]2CCN(C(C#N)c3ccccc3)C2)nc(N(C)CC(C)C)n1 (some centres not stated)
73 | < 1000 | Cc1ccc(C(N)=O)cc1Nc1nc(NC2CCCCNC2)nc(N(C)CC(C)(C)C)n1 (configuration not stated)
74 | < 1000 | Cc1ccc(C(N)=O)cc1Nc1nc(NC2CCNC2)nc(N(C)CC(C)(C)C)n1 (configuration not stated)
75 | < 1000 | Cc1ccc(C(N)=O)cc1Nc1nc(N[C@H]2CCN(c3ccccc3)C2)nc(N(C)CC(C)(C)C)n1
76 | < 1000 | CC(=O)NCc1ccc(C)c(Nc2nc(N[C@H]3CCNC3)nc(N(C)CC(C)(C)C)n2)c1
77 | < 1000 | Cc1ccc(-c2ncc[nH]2)cc1Nc1nc(N[C@@H]2CCNC2)nc(N(C)CC(C)(C)C)n1
78 | < 1000 | Cc1ccc(C(N)=O)cc1Nc1nc(N[C@@H]2CCNC2)nc(N2CCc3ccccc3C2)n1
79 | < 1000 | Cc1ccc(C(N)=O)cc1Nc1nc(NC2CCCC2)nc(N[C@@H]2CCNC2)n1
80 | < 1000 | CCCN1CC[C@@H](Nc2nc(Nc3cc(C(N)=O)ccc3C)nc(N(C)CC(C)C)n2)C1
81 | < 1000 | Cc1ccc(-c2nn(C)c(=O)[nH]2)cc1Nc1nc(N[C@@H]2CCNC2)nc(N(C)CC(C)(C)C)n1
82 | < 1000 | CONC(=O)c1ccc(C)c(Nc2nc(NCc3ccccn3)nc(N(C)CC(C)(C)C)n2)c1
83 | < 1000 | CCCC1(C)CCN(c2nc(Nc3cc(C(=O)NC)ccc3C)nc(N[C@@H]3CCNC3)n2)C1 (some centres not stated)
84 | < 1000 | Cc1ccc(C(N)=O)cc1Nc1nc(NCC2(C)CCCC2)nc(N[C@H]2CCNC2)n1
85 | < 1000 | Cc1c(Cl)cc(C(N)=O)cc1Nc1nc(N[C@H]2CCNC2)nc(N(C)CC(C)C)n1
86 | < 1000 | CCCc1ccc(C(N)=O)cc1Nc1nc(N[C@H]2CCNC2)nc(N(C)CC(C)(C)C)n1
87 | < 1000 | Cc1ccc(C(N)=O)cc1Nc1nc(N[C@@H]2CCN(C(C)C(C)C)C2)nc(N(C)CC(C)(C)C)n1 (some centres not stated)
88 | < 1000 | Cc1ccc(C(N)=O)cc1Nc1nc(N[C@H]2CCN(Cc3ccccc3)C2)nc(N(C)CC(C)C)n1
89 | < 1000 | CCN1CC[C@@H](Nc2nc(Nc3cc(C(=O)NOC)ccc3C)nc(N(C)CC(C)(C)C)n2)C1
90 | < 1000 | CCc1ccc(C(N)=O)cc1Nc1nc(NCC(C)(C)C)nc(N[C@H]2CCNC2)n1
91 | < 1000 | CCN1CCC[C@@H](Nc2nc(Nc3cc(C(N)=O)ccc3C)nc(N(C)CC(C)(C)C)n2)C1
92 | < 1000 | Cc1ccc(C(N)=O)cc1Nc1nc(N[C@H]2CCN(Cc3ccc(Cl)c(Cl)c3)C2)nc(N(C)CC(C)C)n1
